Experimental data as given in patent publication US9409952B2, “Peptide-compound cyclization method” (Chugai Seiyaku Kabushiki Kaisha, priority 2011, dated 2016).
Read-outs that look alike come from different tables or passages of the source. Starred links: 1 amine or outer side, 2 acyl side, 3 side chain; linkers in the order of their positions; H or OH if unused. Positions of bridges follow the written chain, without caps; N, C: chain ends. Non-standard residues stand in square brackets, D forms with d. Residues, ends and D or L forms follow the SMILES beside them. ξ: configuration not given here. *: point of attachment. NMePhe(3-Cl) = CN[C@@H](Cc1cccc(Cl)c1)C(=O)O; Arg(Me2s) = CN=C(NC)NCCC[C@H](N)C(=O)O; NMeF = CN[C@@H](Cc1ccccc1)C(=O)O; NMeGABA = CN(CCCC(=O)[*:2])[*:1]; NMeI = CC[C@H](C)[C@H](NC)C(=O)O; NMeβAla = CN(CCC(=O)[*:2])[*:1]; NMeL = CN[C@@H](CC(C)C)C(=O)O; NMeV = CN[C@H](C(=O)O)C(C)C; NMeS = CN[C@@H](CO)C(=O)O; NMeA = CN[C@@H](C)C(=O)O; Piperidide = C1CCN(*)CC1; dNMeA = CN[C@H](C)C(=O)O; β3hA = C[C@H](N)CC(=O)O; ξD = NC(CC(=O)O)C(=O)O; ξT = CC(O)C(N)C(=O)O; Sar = CNCC(=O)O; tBu = CC(C)(C)*

Columns and labels:
[1] = Metabolic stability in human hepatic microsome; assay type: in vitro ADME; conditions: microsomes
[2] = PAMPA (parallel artificial membrane permeability assay); assay type: in vitro ADME; conditions: PAMPA
Procedure, shortened: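 Artificial membrane was 10% (w/v) egg lecithin plus 0.5% (w/v) cholesterol in dodecane on a PVDF filter. A 10 mM DMSO stock was added at 0.5% (v/v) to donor buffer (50 mM MOPSO, pH 6.5, 5.0% glycocholic acid). After 18 h at 37 °C, LC/MS or LC/UV gave donor and acceptor levels for Pe.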

[3] = pH 7.4, human hepatic microsome, NADPH(+), read-out: CL NADPH(+)
[4] = membrane permeation rate (Pe), 50 mM MOPSO buffer pH 6.5 with 5.0% glycocholic acid, 37° C., 18 hours, read-out: iPAMPA Pe

Row | SMILES | microsomal CLint at 1 uM [1, 3] | Papp at 18 hours, 50 µM [2, 4] | microsomal CLint at 1 uM ([1]; human, pH 7.4, CL NADPH(+)) | Papp at 18 hours, 50 µM ([2]; pH 6.5)
1 | CC(C)C[C@@H]1NC(=O)CCN(C)C(=O)C[C@@H](C(=O)N2CCCCC2)NC(=O)[C@H](CC(C)C)N(C)C(=O)[C@H](CC(C)C)NC(=O)[C@H](Cc2ccccc2)NC(=O)[C@H](C)NC(=O)[C@H]([C@@H](C)O)NC(=O)[C@H](CC(C)C)NC(=O)CN(C)C(=O)[C@H](CC(C)C)NC1=O [DP-324] ([NMeβAla]LL[Sar]LTAFL[NMeL]D-Piperidide; lactam N-11) | 59 µL/min/mg | 7.7 ×10⁻⁶ cm/s |  | 
2 | CC[C@H](C)[C@@H]1NC(=O)[C@H](Cc2ccccc2)N(C)C(=O)[C@H](C)N(C)C(=O)[C@H]([C@@H](C)O)NC(=O)[C@@H](C)N(C)C(=O)C[C@@H](C(=O)N2CCCCC2)NC(=O)[C@H](CC(C)C)N(C)C(=O)[C@H](C)N(C)C(=O)[C@H](Cc2ccccc2)NC(=O)[C@H](C(C)C)N(C)C(=O)[C@@H]2CCCN2C1=O [DP-164] ([dNMeA]T[NMeA][NMeF]IP[NMeV]F[NMeA][NMeL]D-Piperidide; lactam N-11) |  |  | 253 µL/min/mg | 30 ×10⁻⁶ cm/s
3 | CC(C)C[C@@H]1NC(=O)[C@H](CO)N(C)C(=O)[C@H](CC(C)C)N(C)C(=O)[C@H](CC(C)C)N(C)C(=O)[C@H](CC(C)C)N(C)C(=O)[C@@H](C)NC(=O)[C@H](C)NC(=O)[C@H](CC(C)C)N(C)C(=O)C[C@H](C)NC(=O)[C@H](CC(C)C)N(C)C(=O)CN(C)C1=O [DP-649] (cyclo(A[dA][NMeL][NMeL][NMeL][NMeS]L[Sar][NMeL][β3hA][NMeL])) | 27 µL/min/mg | 22 ×10⁻⁶ cm/s |  | 
4 | C/N=C(\NC)NCCC[C@@H]1NC(=O)[C@@H]2CCCN2C(=O)[C@H](CC(C)C)NC(=O)[C@H](CC(C)C)N(C)C(=O)[C@H](Cc2ccccc2)NC(=O)CN(C)C(=O)[C@H](CC(C)C)N(C)C(=O)[C@H](Cc2ccccc2)NC(=O)CN(C)C(=O)C[C@@H](C(=O)N(C)[C@@H](Cc2ccccc2)C(=O)N[C@@H](C)C(=O)N2CCCCC2)NC(=O)[C@H](CC(C)C)NC1=O [DP-597] ([Sar]F[NMeL][Sar]F[NMeL]LP[Arg(Me2s)]LD[NMeF]A-Piperidide; lactam N-11) |  |  | 12 µL/min/mg | 1.7 ×10⁻⁶ cm/s
5 | CC(C)C[C@H]1C(=O)N[C@@H]([C@@H](C)O)C(=O)N(C)[C@@H](Cc2ccccc2)C(=O)N(C)[C@@H](CC(C)C)C(=O)NCC(=O)N(C)[C@@H](C(C)C)C(=O)N[C@@H](Cc2ccccc2)C(=O)N[C@H](C(=O)N(C)[C@@H](Cc2ccccc2)C(=O)N(C)[C@@H](Cc2ccccc2)C(=O)N[C@@H](C)C(=O)N2CCCCC2)CC(=O)N(C)[C@H](C)C(=O)N[C@@H](C(C)C)C(=O)N1C [DP-503] ([dNMeA]V[NMeL]T[NMeF][NMeL]G[NMeV]FD[NMeF][NMeF]A-Piperidide; lactam N-10) | 43 µL/min/mg | 0.2 ×10⁻⁶ cm/s |  | 
6 | CC(C)C[C@H]1C(=O)N(C)[C@@H](CC(C)C)C(=O)NC(C(C)O)C(=O)N(C)[C@@H](Cc2ccccc2)C(=O)NCC(=O)N(C)[C@@H](C(C)C)C(=O)N[C@@H](Cc2ccccc2)C(=O)NC(C(=O)N2CCCCC2)CC(=O)N(C)CCC(=O)N[C@@H](COC(C)(C)C)C(=O)N1C (stereo partly shown) [DP-50] ([NMeβAla]S(tBu)[NMeL][NMeL][ξT][NMeF]G[NMeV]F[ξD]-Piperidide; lactam N-10) |  |  | 80 µL/min/mg | 35 ×10⁻⁶ cm/s
7 | CC[C@H](C)[C@H]1C(=O)NCC(=O)N(C)[C@@H](C)C(=O)N[C@@H](CC(C)C)C(=O)N[C@@H](C)CC(=O)N(C)[C@@H](C)C(=O)N[C@@H](CC(C)C)C(=O)N(C)[C@@H](C)C(=O)N[C@@H]([C@@H](C)O)C(=O)N2CCC[C@H]2C(=O)N1C [DP-827] (cyclo(G[NMeA]L[β3hA][NMeA]L[NMeA]TP[NMeI])) |  |  | 49 µL/min/mg | 5.8 ×10⁻⁶ cm/s
8 | CC(C)C[C@H]1C(=O)N(C)[C@@H](C(C)C)C(=O)N[C@@H](Cc2ccccc2)C(=O)N[C@H](C(=O)N(C)[C@@H](Cc2ccccc2)C(=O)N(C)[C@@H](Cc2ccccc2)C(=O)N[C@@H](C)C(=O)N2CCCCC2)CC(=O)N[C@H](C)C(=O)N[C@@H](C(C)C)C(=O)N(C)[C@@H](CC(C)C)C(=O)N[C@@H]([C@@H](C)O)C(=O)N(C)[C@@H](Cc2ccccc2)C(=O)NCC(=O)N1C [DP-501] ([dA]V[NMeL]T[NMeF]G[NMeL][NMeV]FD[NMeF][NMeF]A-Piperidide; lactam N-10) | 7 µL/min/mg | 0.23 ×10⁻⁶ cm/s |  | 
9 | CC(C)C[C@H]1C(=O)N[C@@H](COC(C)(C)C)C(=O)N[C@@H](C)CC(=O)N[C@H](C(C)C)C(=O)N(C)[C@@H](Cc2cccc(Cl)c2)C(=O)N(C)[C@@H](C)C(=O)N(C)[C@@H](CC(C)C)C(=O)N[C@@H]([C@@H](C)O)C(=O)N(C)[C@@H](C)C(=O)N1C [DP-801] (cyclo([NMeA][NMeL]S(tBu)[β3hA][dV][NMePhe(3-Cl)][NMeA][NMeL]T)) | 133 µL/min/mg | 60 ×10⁻⁶ cm/s |  | 
10 | CC[C@H](C)[C@@H]1NC(=O)[C@H](Cc2ccccc2)N(C)C(=O)[C@H]([C@@H](C)O)NC(=O)[C@H](C(C)C)N(C)C(=O)[C@H](CC(C)C)NC(=O)[C@H](CC(C)C)N(C)C(=O)CCN(C)C(=O)C[C@@H](C(=O)N2CCCCC2)NC(=O)[C@H](C)NC(=O)[C@H](C)N(C)C(=O)[C@H](Cc2ccccc2)NC1=O [DP-238] ([NMeβAla][NMeL]L[NMeV]T[NMeF]IF[NMeA]AD-Piperidide; lactam N-11) | 129 µL/min/mg | 19 ×10⁻⁶ cm/s |  | 
11 | CC(C)C[C@@H]1NC(=O)[C@H]([C@@H](C)O)NC(=O)[C@H](CC(C)C)N(C)C(=O)CN(C)C(=O)[C@H](Cc2ccccc2)N(C)C(=O)[C@H](C(C)C)NC(=O)C[C@@H](C(=O)N2CCCCC2)NC(=O)[C@H](CC(C)C)N(C)C1=O [DP-690] (V[NMeF][Sar][NMeL]TL[NMeL]D-Piperidide; lactam N-8) | 217 µL/min/mg | 33 ×10⁻⁶ cm/s |  | 
12 | CC[C@H](C)[C@@H]1NC(=O)[C@H](CC(C)C)N(C)C(=O)[C@H](Cc2ccccc2)N(C)C(=O)[C@H](Cc2ccccc2)NC(=O)[C@H](C)N(C)C(=O)[C@H](CC(C)C)N(C)C(=O)[C@@H](C(C)C)NC(=O)C[C@@H](C(=O)N(C)[C@@H](CC(C)C)C(=O)N[C@H](C(=O)N(C)[C@@H](C)C(=O)N[C@H](C(=O)N2CCCCC2)[C@@H](C)CC)C(C)C)NC(=O)[C@H](CC(C)C)NC(=O)[C@H]([C@@H](C)O)NC1=O [DP-947] ([dV][NMeL][NMeA]F[NMeF][NMeL]ITLD[NMeL]V[NMeA]I-Piperidide; lactam N-10) | 14 µL/min/mg | 0.1 ×10⁻⁶ cm/s |  | 
13 | CC[C@H](C)[C@@H]1NC(=O)[C@H](CC(C)C)N(C)C(=O)[C@H](Cc2ccccc2)N(C)C(=O)CN(C)C(=O)[C@H](C)N(C)C(=O)[C@H](Cc2ccccc2)N(C)C(=O)[C@H](C)N(C)C(=O)[C@H]([C@@H](C)O)NC(=O)[C@H](C(C)C)N(C)C(=O)CCN(C)C(=O)C[C@@H](C(=O)N2CCCCC2)NC1=O [DP-516] ([NMeβAla][NMeV]T[NMeA][NMeF][NMeA][Sar][NMeF][NMeL]ID-Piperidide; lactam N-11) | 19 µL/min/mg | 9.1 ×10⁻⁶ cm/s |  | 
14 | CC[C@H](C)[C@H]1C(=O)N[C@H](C(=O)N(C)[C@@H](Cc2ccccc2)C(=O)N(C)[C@@H](Cc2ccccc2)C(=O)N[C@@H](C)C(=O)N2CCCCC2)CC(=O)N(C)CC(=O)N(C)[C@@H](C)C(=O)N[C@@H]([C@@H](C)O)C(=O)N(C)[C@@H](C)C(=O)N(C)[C@@H](CC(C)C)C(=O)N(C)[C@@H](Cc2ccccc2)C(=O)N[C@@H](C(C)C)C(=O)N(C)[C@@H](CC(C)C)C(=O)N1C [DP-302] ([Sar][NMeA]T[NMeA][NMeL][NMeF]V[NMeL][NMeI]D[NMeF][NMeF]A-Piperidide; lactam N-10) |  |  | 102 µL/min/mg | 18 ×10⁻⁶ cm/s
15 | CC[C@H](C)[C@@H]1NC(=O)[C@H](C)N(C)C(=O)[C@H]([C@@H](C)O)NC(=O)[C@H](Cc2ccccc2)N(C)C(=O)CNC(=O)[C@H](CC(C)C)N(C)C(=O)[C@H](C(C)C)NC(=O)[C@H](CC(C)C)N(C)C(=O)[C@H](Cc2ccccc2)NC(=O)[C@H](C)N(C)C(=O)CCCN(C)C(=O)C[C@@H](C(=O)N2CCCCC2)NC1=O [DP-108] ([NMeGABA][NMeA]F[NMeL]V[NMeL]G[NMeF]T[NMeA]ID-Piperidide; lactam N-12) | 48 µL/min/mg | 22 ×10⁻⁶ cm/s |  | 
16 | CC[C@H](C)[C@H]1C(=O)N[C@H](C(=O)N2CCCCC2)CC(=O)N[C@H](C)C(=O)N[C@@H]([C@@H](C)O)C(=O)N(C)[C@@H](Cc2ccccc2)C(=O)N[C@@H](CC(C)C)C(=O)N2CCC[C@H]2C(=O)N(C)[C@@H](C(C)C)C(=O)N[C@@H](Cc2ccccc2)C(=O)N(C)CC(=O)N(C)[C@@H](CC(C)C)C(=O)N[C@@H](C)C(=O)N1C [DP-215] ([dA]T[NMeF]LP[NMeV]F[Sar][NMeL]A[NMeI]D-Piperidide; lactam N-12) | 35 µL/min/mg | 24 ×10⁻⁶ cm/s |  | 
17 | CC(C)C[C@@H]1NC(=O)[C@H](C)N(C)C(=O)CNC(=O)[C@H](C(C)C)N(C)C(=O)[C@H](Cc2ccccc2)NC(=O)[C@H]([C@@H](C)O)NC(=O)[C@H](CC(C)C)N(C)C(=O)CN(C)C(=O)C[C@@H](C(=O)N(C)[C@@H](Cc2ccccc2)C(=O)N[C@@H](C)C(=O)N2CCCCC2)NC(=O)[C@H](C)N(C)C(=O)[C@H](CC(C)C)N(C)C1=O [DP-285] ([Sar][NMeL]TF[NMeV]G[NMeA]L[NMeL][NMeA]D[NMeF]A-Piperidide; lactam N-11) |  |  | 69 µL/min/mg | 16 ×10⁻⁶ cm/s
